Like-named read-outs stand apart in the source and are kept apart here.
Experiments:
Assay type in all cases: biochemical
c-Met = molecular target: T1, c-Met (Homo sapiens, UniProt P08581); assay: Kinase inhibition assay (33P transfer), c-Met; conditions: Table 2, kinase inhibition class; read-out: Met-1
T1 construct: Kinases are expressed as either kinase domains or full length constructs; made in house
Excerpt: (§1) The inhibitor compounds described herein are screened in the following manner. Kinases suitable for use in the following protocol to determine kinase activity of the compounds described herein include, -but are not limited to: Lck, Lyn, Src, Fyn, Syk, Zap-70, Itk, Tec, Btk, EGFR, ErbB2, Kdr, Flt-1, Flt-3, Tek, c-Met, InsR, and AKT.
(§2) Kinases are expressed as either kinase domains or full length constructs fused to glutathione S-transferase (GST) or polyHistidine tagged fusion proteins in either E. colior Baculovirus-High Five expression systems. They are purified to near homogeneity by affinity chromatography essentially as previously described (Lehr et al., 1996; Gish et al., 1995). In some instances, kinases are co-expressed or mixed with purified or partially purified regulatory polypeptides prior to measurement of activity.
(§3) Kinase activity and inhibition are measured essentially by established protocols (Braunwalder et al., 1996). Briefly, The transfer of ^33PO4 from ATP to the synthetic substrates poly(Glu, Tyr) 4:1 or poly(Arg, Ser) 3:1 attached to the bioactive surface of microtiter plates serves as the basis to evaluate enzyme activity. After an incubation period, the amount of phosphate transferred is measured by first washing the plate with 0.5% phosphoric acid, adding liquid scintillant, and then counting in a liquid scintillation detector. The IC50 is determined by the concentration of compound that causes a 50% reduction in the amount of […] incorporated onto the substrate bound to the plate.

Kdr = molecular target: T2, Kdr (Homo sapiens, UniProt P35968); assay: Kinase inhibition assay (33P transfer), Kdr; conditions: read-out: KDR-1
T2 construct: Kinases are expressed as either kinase domains or full length constructs; made in house
Excerpt: as §1
as §2, with “They are purified to near homogeneity by affinity chromatography essentially as previously described (Lehr et al., 1996; Gish et al., 1995).” left out
(§4) Briefly, The transfer of ^33PO4 from ATP to the synthetic substrates poly(Glu, Tyr) 4:1 or poly(Arg, Ser) 3:1 attached to the bioactive surface of microtiter plates serves as the basis to evaluate enzyme activity. After an incubation period, the amount of phosphate transferred is measured by first washing the plate with 0.5% phosphoric acid, adding liquid scintillant, and then counting in a liquid scintillation detector.

AKT = molecular target: T3, AKT (Homo sapiens, UniProt Q9Y243); assay: Kinase inhibition assay (33P transfer), AKT; conditions: Table 2, kinase inhibition class; read-out: AKT3-1
T3 construct: Kinases are expressed as either kinase domains or full length constructs; made in house
Excerpt: as §1
as §2, with “They are purified to near homogeneity by affinity chromatography essentially as previously described (Lehr et al., 1996; Gish et al., 1995).” left out
as §4

Lck = molecular target: T4, Lck (Homo sapiens, UniProt P06239); assay: Kinase inhibition assay (33P transfer), Lck; conditions: read-out: Lck-1
T4 construct: Kinases are expressed as either kinase domains or full length constructs; made in house
Excerpt: as §1
as §2, with “They are purified to near homogeneity by affinity chromatography essentially as previously described (Lehr et al., 1996; Gish et al., 1995).” left out
as §4

EGFR = molecular target: T5, EGFR (Homo sapiens, UniProt P00533); assay: Kinase inhibition assay (33P transfer), EGFR; conditions: Table 2, kinase inhibition class; read-out: EGFR-1
T5 construct: Kinases are expressed as either kinase domains or full length constructs; made in house
Excerpt: as §1, §2, §3

Itk = molecular target: T6, Itk (Homo sapiens, UniProt Q08881); assay: Kinase inhibition assay (33P transfer), Itk; conditions: read-out: Itk-1
T6 construct: Kinases are expressed as either kinase domains or full length constructs; made in house
T6 sequence (Q08881 1-620): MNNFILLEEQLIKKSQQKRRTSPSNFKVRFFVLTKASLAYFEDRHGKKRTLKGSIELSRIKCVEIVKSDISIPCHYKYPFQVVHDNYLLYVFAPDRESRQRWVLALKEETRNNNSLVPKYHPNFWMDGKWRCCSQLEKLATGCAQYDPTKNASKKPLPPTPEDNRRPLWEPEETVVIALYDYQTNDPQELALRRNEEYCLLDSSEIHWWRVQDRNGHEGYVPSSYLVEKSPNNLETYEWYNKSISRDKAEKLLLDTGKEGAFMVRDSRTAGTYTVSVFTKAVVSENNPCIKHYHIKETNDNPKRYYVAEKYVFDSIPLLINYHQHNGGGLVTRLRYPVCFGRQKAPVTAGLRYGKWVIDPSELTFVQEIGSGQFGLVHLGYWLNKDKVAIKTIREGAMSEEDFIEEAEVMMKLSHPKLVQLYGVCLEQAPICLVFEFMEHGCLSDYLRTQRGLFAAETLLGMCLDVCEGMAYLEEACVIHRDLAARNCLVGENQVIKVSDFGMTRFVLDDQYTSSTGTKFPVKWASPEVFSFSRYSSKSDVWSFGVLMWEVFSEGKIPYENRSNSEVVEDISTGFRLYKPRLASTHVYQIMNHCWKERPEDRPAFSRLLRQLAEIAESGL
Excerpt: as §1, §2, §3

Zap-70 = molecular target: T7, Zap-70 (Homo sapiens, UniProt P43403); assay: Kinase inhibition assay (33P transfer), Zap-70; conditions: read-out: Zap-1
T7 construct: Kinases are expressed as either kinase domains or full length constructs; made in house
T7 sequence (P43403 1-619): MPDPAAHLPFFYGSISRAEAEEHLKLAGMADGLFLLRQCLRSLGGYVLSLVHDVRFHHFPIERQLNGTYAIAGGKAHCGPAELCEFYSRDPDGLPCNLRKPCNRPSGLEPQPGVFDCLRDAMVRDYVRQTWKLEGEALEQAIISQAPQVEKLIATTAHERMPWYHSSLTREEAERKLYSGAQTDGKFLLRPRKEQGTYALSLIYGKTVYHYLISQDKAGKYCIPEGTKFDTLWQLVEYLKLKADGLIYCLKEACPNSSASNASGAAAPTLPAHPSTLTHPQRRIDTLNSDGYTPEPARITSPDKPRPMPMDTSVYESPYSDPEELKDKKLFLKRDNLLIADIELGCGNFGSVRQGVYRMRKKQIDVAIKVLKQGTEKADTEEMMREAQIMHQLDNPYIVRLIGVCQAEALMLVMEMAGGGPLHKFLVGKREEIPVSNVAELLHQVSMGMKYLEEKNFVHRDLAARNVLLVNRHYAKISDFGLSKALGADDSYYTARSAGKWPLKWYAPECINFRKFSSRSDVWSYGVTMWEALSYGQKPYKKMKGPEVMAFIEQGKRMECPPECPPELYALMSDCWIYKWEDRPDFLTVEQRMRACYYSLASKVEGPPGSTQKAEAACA
Excerpt: as §1
as §2, with “They are purified to near homogeneity by affinity chromatography essentially as previously described (Lehr et al., 1996; Gish et al., 1995).” left out
as §4

T5 sequence (P00533 25-1210, species assumed): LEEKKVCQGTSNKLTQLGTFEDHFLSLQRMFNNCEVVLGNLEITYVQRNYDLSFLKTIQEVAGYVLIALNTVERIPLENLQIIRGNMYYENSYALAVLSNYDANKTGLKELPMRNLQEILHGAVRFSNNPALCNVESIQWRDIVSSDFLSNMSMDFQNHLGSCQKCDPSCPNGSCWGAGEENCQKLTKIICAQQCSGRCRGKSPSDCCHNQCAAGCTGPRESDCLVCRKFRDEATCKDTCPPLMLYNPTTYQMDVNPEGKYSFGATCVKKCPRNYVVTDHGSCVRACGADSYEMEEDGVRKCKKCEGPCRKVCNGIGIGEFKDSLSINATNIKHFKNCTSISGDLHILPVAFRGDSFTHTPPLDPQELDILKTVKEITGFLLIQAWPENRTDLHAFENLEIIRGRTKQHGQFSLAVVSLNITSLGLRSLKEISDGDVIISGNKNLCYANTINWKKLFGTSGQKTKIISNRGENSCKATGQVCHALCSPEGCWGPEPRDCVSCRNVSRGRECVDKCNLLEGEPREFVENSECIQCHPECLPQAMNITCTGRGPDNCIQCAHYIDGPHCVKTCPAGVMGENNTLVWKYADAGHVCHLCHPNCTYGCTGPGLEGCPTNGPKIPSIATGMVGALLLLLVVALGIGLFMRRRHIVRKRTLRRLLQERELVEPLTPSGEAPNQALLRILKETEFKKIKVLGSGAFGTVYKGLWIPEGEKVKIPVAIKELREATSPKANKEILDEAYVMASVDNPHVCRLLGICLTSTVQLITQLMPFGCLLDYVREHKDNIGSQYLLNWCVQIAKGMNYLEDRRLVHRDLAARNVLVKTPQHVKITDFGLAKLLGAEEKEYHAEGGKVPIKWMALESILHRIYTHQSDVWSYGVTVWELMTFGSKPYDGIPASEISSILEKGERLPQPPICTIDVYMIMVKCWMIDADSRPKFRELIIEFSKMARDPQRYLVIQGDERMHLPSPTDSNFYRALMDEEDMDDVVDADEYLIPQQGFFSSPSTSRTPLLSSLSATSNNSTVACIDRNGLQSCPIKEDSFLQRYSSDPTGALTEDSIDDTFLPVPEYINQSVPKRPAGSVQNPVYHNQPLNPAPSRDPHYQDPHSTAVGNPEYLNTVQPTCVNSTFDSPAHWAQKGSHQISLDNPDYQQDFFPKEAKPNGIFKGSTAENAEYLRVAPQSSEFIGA
T2 sequence (P35968 20-1356, species assumed): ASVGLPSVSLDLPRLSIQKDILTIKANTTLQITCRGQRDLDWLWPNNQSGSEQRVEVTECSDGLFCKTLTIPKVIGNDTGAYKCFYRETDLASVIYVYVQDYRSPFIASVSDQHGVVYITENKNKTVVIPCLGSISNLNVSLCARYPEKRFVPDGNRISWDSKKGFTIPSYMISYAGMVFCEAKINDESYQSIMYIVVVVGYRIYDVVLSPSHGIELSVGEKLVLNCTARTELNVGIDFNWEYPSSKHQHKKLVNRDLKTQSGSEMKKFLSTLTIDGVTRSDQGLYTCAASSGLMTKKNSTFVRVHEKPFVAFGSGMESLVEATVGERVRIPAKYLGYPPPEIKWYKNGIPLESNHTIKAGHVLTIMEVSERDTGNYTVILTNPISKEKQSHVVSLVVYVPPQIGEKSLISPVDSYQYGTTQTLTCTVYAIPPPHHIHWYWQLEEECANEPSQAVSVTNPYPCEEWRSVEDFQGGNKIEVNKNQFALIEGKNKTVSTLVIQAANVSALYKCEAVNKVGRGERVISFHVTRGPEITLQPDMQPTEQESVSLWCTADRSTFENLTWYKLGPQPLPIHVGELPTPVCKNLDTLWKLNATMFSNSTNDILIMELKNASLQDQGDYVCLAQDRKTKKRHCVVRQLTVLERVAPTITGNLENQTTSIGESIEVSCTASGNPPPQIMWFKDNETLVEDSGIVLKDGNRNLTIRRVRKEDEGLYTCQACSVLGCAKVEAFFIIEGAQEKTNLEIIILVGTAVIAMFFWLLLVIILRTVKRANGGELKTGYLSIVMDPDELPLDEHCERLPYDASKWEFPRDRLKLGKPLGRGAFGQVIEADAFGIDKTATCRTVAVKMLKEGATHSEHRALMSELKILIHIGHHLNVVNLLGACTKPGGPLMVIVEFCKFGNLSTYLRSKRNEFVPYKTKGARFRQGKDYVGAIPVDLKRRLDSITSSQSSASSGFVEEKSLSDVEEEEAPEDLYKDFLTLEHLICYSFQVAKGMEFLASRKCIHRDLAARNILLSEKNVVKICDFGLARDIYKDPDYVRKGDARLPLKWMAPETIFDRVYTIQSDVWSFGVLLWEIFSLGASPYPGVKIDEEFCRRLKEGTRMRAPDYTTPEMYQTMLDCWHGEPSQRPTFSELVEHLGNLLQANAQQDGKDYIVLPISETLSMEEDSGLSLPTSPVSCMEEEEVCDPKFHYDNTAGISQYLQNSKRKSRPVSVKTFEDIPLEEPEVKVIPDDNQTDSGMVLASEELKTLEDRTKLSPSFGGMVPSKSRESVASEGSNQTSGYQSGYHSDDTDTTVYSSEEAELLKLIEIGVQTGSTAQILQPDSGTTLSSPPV
T1 sequence (P08581 25-1390): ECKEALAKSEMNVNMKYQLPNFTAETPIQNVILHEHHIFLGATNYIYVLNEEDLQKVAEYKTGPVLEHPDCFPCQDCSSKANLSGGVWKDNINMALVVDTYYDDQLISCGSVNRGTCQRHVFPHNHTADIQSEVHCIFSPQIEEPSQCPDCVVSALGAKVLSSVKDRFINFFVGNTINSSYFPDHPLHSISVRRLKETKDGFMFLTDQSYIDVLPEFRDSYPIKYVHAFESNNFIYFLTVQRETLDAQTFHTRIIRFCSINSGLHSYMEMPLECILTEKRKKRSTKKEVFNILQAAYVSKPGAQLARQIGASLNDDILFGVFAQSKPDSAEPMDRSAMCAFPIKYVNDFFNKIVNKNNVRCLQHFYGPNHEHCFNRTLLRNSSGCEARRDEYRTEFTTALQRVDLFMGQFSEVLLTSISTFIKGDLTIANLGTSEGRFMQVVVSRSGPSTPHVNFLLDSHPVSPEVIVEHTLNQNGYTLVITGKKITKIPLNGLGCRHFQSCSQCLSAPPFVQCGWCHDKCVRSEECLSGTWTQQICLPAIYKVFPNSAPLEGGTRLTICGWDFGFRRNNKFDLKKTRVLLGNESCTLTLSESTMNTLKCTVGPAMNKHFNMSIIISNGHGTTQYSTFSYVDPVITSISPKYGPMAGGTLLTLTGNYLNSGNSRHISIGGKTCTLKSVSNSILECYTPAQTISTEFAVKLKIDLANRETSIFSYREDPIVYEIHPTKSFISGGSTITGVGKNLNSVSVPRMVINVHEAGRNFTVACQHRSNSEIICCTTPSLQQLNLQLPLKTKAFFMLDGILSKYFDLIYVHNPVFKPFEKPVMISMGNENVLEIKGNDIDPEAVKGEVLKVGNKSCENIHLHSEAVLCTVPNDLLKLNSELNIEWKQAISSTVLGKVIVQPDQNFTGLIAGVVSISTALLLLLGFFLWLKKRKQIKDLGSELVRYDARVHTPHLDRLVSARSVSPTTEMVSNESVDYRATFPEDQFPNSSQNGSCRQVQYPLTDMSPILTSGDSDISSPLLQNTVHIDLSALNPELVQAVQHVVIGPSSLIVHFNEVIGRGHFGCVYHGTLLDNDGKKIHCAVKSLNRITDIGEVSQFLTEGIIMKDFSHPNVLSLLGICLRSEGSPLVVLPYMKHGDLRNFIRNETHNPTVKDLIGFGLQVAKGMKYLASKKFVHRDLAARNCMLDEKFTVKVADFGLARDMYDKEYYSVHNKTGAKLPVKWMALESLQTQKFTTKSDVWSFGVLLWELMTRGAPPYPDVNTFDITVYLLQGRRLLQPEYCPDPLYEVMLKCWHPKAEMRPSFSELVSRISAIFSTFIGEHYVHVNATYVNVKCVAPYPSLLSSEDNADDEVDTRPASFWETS
T3 sequence (Q9Y243 whole entry, the tested form may be a part): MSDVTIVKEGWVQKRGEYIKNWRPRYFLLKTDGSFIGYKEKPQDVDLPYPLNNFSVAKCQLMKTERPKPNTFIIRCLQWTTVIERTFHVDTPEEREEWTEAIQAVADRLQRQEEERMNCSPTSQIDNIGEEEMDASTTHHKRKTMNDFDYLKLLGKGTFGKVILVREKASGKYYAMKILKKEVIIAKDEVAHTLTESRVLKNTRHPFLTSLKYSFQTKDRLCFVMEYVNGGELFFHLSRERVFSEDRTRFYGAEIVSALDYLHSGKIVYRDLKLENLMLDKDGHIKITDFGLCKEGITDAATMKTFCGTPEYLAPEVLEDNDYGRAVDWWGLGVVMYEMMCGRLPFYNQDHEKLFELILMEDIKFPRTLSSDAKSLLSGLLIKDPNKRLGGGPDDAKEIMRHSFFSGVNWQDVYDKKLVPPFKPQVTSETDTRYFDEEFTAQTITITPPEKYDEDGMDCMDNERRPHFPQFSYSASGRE
T4 sequence (P06239 whole entry, species assumed, the tested form may be a part): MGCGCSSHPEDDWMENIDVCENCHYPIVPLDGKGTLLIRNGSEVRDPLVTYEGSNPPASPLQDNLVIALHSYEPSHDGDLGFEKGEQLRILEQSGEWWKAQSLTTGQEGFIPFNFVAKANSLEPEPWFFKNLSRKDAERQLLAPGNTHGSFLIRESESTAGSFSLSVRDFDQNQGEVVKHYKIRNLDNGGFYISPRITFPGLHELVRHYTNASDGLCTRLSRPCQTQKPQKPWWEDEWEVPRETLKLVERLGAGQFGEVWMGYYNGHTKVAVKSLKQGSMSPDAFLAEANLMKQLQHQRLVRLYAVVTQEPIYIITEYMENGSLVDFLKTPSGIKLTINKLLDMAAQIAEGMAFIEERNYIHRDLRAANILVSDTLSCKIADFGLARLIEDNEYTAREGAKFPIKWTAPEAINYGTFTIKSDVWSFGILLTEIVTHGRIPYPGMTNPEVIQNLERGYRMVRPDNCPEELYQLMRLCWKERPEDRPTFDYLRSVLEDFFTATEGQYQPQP

Compound	IC50 (c-Met)	IC50 (Kdr)	IC50 (AKT)	IC50 (Lck)	IC50 (EGFR)	IC50 (Itk)	IC50 (Zap-70)	IC50 (Kdr; Table 3)	IC50 (Lck; Table 3)	IC50 (Itk; Table 3)	IC50 (Zap-70; Table 3)
COc1cc(Nc2ncnc(-c3ccnc(NCCCN)c3)n2)cc(OC)c1OC [Compound 45]	> 10.9 µM		> 10.9 µM		> 10.9 µM			> 10.9 µM	0.972 to 5.83 µM	> 10.9 µM	> 10.9 µM
COc1cc(Nc2ncnc(Nc3[nH]ncc3-c3cccc(Cl)c3)n2)cc(OC)c1OC [Compound 999]	> 9.91 µM	> 9.91 µM	> 9.91 µM	> 9.91 µM	> 9.91 µM	> 9.91 µM	> 9.91 µM				
CC(C)(C)c1cc(Nc2ncnc(Nc3cccc(CO)c3)n2)[nH]n1 [Compound 499]	1.18 to 7.07 µM	1.18 to 7.07 µM	> 13.3 µM	1.18 to 7.07 µM	1.18 to 7.07 µM	1.18 to 7.07 µM	> 13.3 µM				
COc1cc(Nc2ncnc(-n3c(=O)sc4cc(Br)ccc43)n2)cc(OC)c1OC [Compound 426]	> 9.18 µM		> 9.18 µM		> 9.18 µM			> 9.18 µM	> 9.18 µM	> 9.18 µM	> 9.18 µM
CC(C)(C)OC(=O)NCc1cccc(Nc2ncnc(Nc3cc(C(C)(C)C)n[nH]3)n2)c1 [Compound 987]	> 10.3 µM	> 10.3 µM	> 10.3 µM	0.912 to 5.47 µM	> 10.3 µM	> 10.3 µM	> 10.3 µM				
CC(C)(C)c1cc(Nc2ncnc(Nc3cccc(C(N)=O)c3)n2)[nH]n1 [Compound 500]	1.14 to 6.81 µM	1.14 to 6.81 µM	> 12.8 µM	1.14 to 6.81 µM	1.14 to 6.81 µM	1.14 to 6.81 µM	> 12.8 µM				
COc1cc(Nc2ncnc(Nc3nc(C)cs3)n2)cc(OC)c1OC [Compound 468]	> 12 µM		> 12 µM		1.07 to 6.41 µM			1.07 to 6.41 µM	> 12 µM	> 12 µM	> 12 µM
CCOC(=O)C(Cc1cccc(Nc2ncnc(Nc3cc(-c4ccco4)n[nH]3)n2)c1)(NC(C)=O)C(=O)OCC [Compound 481]	> 8.2 µM	0.729 to 4.38 µM	> 8.2 µM	> 8.2 µM	> 8.2 µM	6.38 to 8.2 µM	> 8.2 µM				
Clc1ncnc(Nc2cc(-c3ccccc3)n[nH]2)n1 [Compound 976]	> 16.5 µM	> 16.5 µM	> 16.5 µM	> 16.5 µM	> 16.5 µM	> 16.5 µM	8.8 to 12.8 µM				
CC(C)(C)c1cc(Nc2ncnc(Cl)n2)[nH]n1 [Compound 975]	> 17.8 µM	> 17.8 µM	> 17.8 µM	> 17.8 µM	> 17.8 µM	> 17.8 µM	> 17.8 µM				

Results, then the compound that gave them:

IC50 (c-Met)	IC50 (Kdr)	IC50 (AKT)	IC50 (Lck)	IC50 (EGFR)	IC50 (Itk)	IC50 (Zap-70)	IC50 (Kdr; Table 3)	IC50 (Lck; Table 3)	IC50 (Itk; Table 3)	IC50 (Zap-70; Table 3)	Compound
> 13.7 µM	1.21 to 7.29 µM	> 13.7 µM	1.21 to 7.29 µM	> 13.7 µM	> 13.7 µM	> 13.7 µM					N#Cc1cccc(Nc2ncnc(-n3c(=O)[nH]c4ccccc43)n2)c1 [Compound 486]
> 10.9 µM	0.97 to 5.82 µM	> 10.9 µM	> 10.9 µM	> 10.9 µM	> 10.9 µM	> 10.9 µM					O=c1[nH]c2ccccc2n1-c1ncnc(Nc2cccc(S(=O)(=O)CCO)c2)n1 [Compound 681]
> 14.8 µM	< 1.31 µM	> 14.8 µM	> 14.8 µM	> 14.8 µM	> 14.8 µM	> 14.8 µM					O=c1[nH]c2ccccc2n1-c1ncnc(Nc2ccccc2)n1 [Compound 482]
7.08 to 10.3 µM	> 13.3 µM	> 13.3 µM	> 13.3 µM	1.18 to 7.08 µM	> 13.3 µM	> 13.3 µM					O=c1[nH]c2ccccc2n1-c1ncnc(Nc2ccccc2Cl)n1 [Compound 484]
> 12.4 µM	< 1.1 µM	> 12.4 µM	1.1 to 6.6 µM	> 12.4 µM	1.1 to 6.6 µM	> 12.4 µM					COc1cc(Nc2ncnc(-n3c(N)nc4ccccc43)n2)cc(OC)c1 [Compound 477]
> 11.6 µM		> 11.6 µM		> 11.6 µM			> 11.6 µM	> 11.6 µM	> 11.6 µM	> 11.6 µM	O=c1[nH]c2ccccc2n1-c1ncnc(Nc2cccc(OC(F)(F)F)c2)n1 [Compound 461]
> 13 µM		> 13 µM		> 13 µM			1.15 to 6.91 µM	> 13 µM	> 13 µM	> 13 µM	NC(=O)c1cccc(Nc2ncnc(-n3c(=O)[nH]c4ccccc43)n2)c1 [Compound 420]
> 9.95 µM	0.884 to 5.3 µM	> 9.95 µM	> 9.95 µM	> 9.95 µM	> 9.95 µM	> 9.95 µM					COC(=O)n1c(=O)n(-c2ncnc(Nc3cc(OC)c(OC)c(OC)c3)n2)c2ccccc21 [Compound 1032]
> 12.7 µM	6.77 to 9.88 µM	> 12.7 µM	> 12.7 µM	> 12.7 µM	> 12.7 µM	> 12.7 µM					O=c1[nH]c2ccccc2n1-c1ncnc(Nc2ccc3ccccc3c2)n1 [Compound 684]
> 13.1 µM	> 13.1 µM	> 13.1 µM	> 13.1 µM	> 13.1 µM	> 13.1 µM	> 13.1 µM					O=c1[nH]c2ccccc2n1-c1ncnc(Nc2ccc3[nH]ncc3c2)n1 [Compound 685]
6.66 to 9.71 µM	< 1.11 µM	> 12.5 µM	1.11 to 6.66 µM	> 12.5 µM	1.11 to 6.66 µM	> 12.5 µM					CC(=O)Nc1ccc(Nc2ncnc(-n3c(N)nc4ccccc43)n2)cc1 [Compound 475]
> 10.9 µM		> 10.9 µM		> 10.9 µM			5.83 to 8.51 µM	> 10.9 µM	> 10.9 µM	> 10.9 µM	COc1cc(Nc2ncnc(-n3c(=O)sc4ccccc43)n2)cc(OC)c1OC [Compound 424]
> 14.7 µM	> 14.7 µM	> 14.7 µM	> 14.7 µM	> 14.7 µM	> 14.7 µM	> 14.7 µM					O=c1[nH]c2ccccc2n1-c1ncnc(Nc2ccccn2)n1 [Compound 487]

— US7074789B2, “Kinase inhibitors” (Amgen Inc., priority 1999, dated 2006)
